Patent publication US20090311237A1, “Combination therapy using a soluble hyaluronidase and a bisphosphonate” (priority 2008, published 2009)
Where “and” joins values, the source holds several entries; their conditions need not be identical. Equal values may be shown once. Read-outs that look alike come from different tables or passages of the source.

Experiment: Phase 1 Stage 1 clinical pharmacokinetics of SC ZA co-administered with rHuPH20
Type: in vivo, human
Settings: for half-life / AUC(0-t) / Cmax / AUC(0-inf) / Tmax: human, serum; for half-life: read-out: T½ λz (converted); for AUC(0-inf): read-out: AUC (0-inf); for Tmax: read-out: Tmax
Protocol: A pharmacokinetic study of zoledronic acid (ZA) co-administered with rHuPH20 in human subjects was conducted. The primary objective of the study was to determine the bioavailability of zoledronic acid dosed via subcutaneous (SC) co-administration with human recombinant hyaluronidase PH20 (rHuPH20). […] The patients were administered the prescribed dosage formulations as follows: Cohorts 1-5 were administered a single subcutaneous infusion in a dosage volume of 100 ml at a rate of 3 mL/min. […] The dosing solution is administered via needle or catheter into the SC space of the left anterior thigh (midway between the anterior iliac crest and the cephalad border of the patella). For cohorts 1-5, the dosing solutions were administered by a controlled rate infusion pump at approximately 3 mL/minute. […] The dosing solutions were administered by syringe push bolus injection. […] Serum concentration of ZA was determined using a qualified LC-MS-MS assay after derivatization with diazomethane (Zhu, L S et al. (2006) Rapid Commun. […] The assay range was from 2.0 to 400 ng/mL with a lower limit of quantitation (LLOQ) at 2.0 ng/mL. […] Non-compartmental analysis was used for derivation of primary and secondary pharmacokinetic (PK) parameters. […] Summary statistics (mean, standard deviation, and median) were calculated using JMP or Microsoft Excel.

[1] = ZA 2 mg SC + 24000 U rHuPH20, mean, n=3
[2] = ZA 2 mg SC + 24000 U rHuPH20, median, n=3
[3] = ZA 2 mg SC, 100 mL, 24000 Units rHuPH20, n=3
[4] = ZA 5 mg SC + 24000 U rHuPH20, individual subjects
[5] = ZA 5 mg SC + 24000 U rHuPH20, mean, n=3
[6] = ZA 5 mg SC + 24000 U rHuPH20, median, n=3
[7] = ZA 5 mg SC, 100 mL, 24000 Units rHuPH20, n=3
[8] = ZA 0.25-5 mg SC, 100 mL, 24000 Units rHuPH20, n=15
[9] = sc, 0.0196 mg/kg, Subj 27, ZA 0.0196 mg/kg SC, inf […], PH20 23976 U
[10] = sc, 0.0339 mg/kg, Subj 29, ZA 0.0339 mg/kg SC, inf 0.556 hr, PH20 24000 U
[11] = sc, 0.0608 mg/kg, Subj 68, ZA 0.0608 mg/kg SC, inf […], PH20 2880 U
[12] = sc, 0.0653 mg/kg, Subj 41, ZA 0.0653 mg/kg SC, inf […], PH20 12216 U
[13] = sc, 0.0691 mg/kg, Subj 39, ZA 0.0691 mg/kg SC, inf 0.552 hr, PH20 23856 U
[14] = sc, 0.0706 mg/kg, Subj 38, ZA 0.0706 mg/kg SC, inf 0.554 hr, PH20 23952 U
[15] = sc, 0.0717 mg/kg, Subj 67, ZA 0.0717 mg/kg SC, inf […], PH20 2880 U
[16] = sc, 0.0776 mg/kg, Subj 70, ZA 0.0776 mg/kg SC, inf […], PH20 2928 U
[17] = sc, 0.0781 mg/kg, Subj 71, ZA 0.0781 mg/kg SC, inf […], PH20 6000 U

O=P(O)(O)C(O)(Cn1ccnc1)P(=O)(O)O [ZA, 1-hydroxy-2-(1H-imidazol-1-yl)ethylidene-1,1-bisphosphonic acid]
T½elim (ZA 2 mg SC + 24000 U rHuPH20, individual subjects): 12.72 h (2×) and 22.02 h
AUC (0-∞)/D [1]: 0.00791 kg·h/mL
Cmax/D [1]: 0.00176 kg/mL
T½elim [1]: 15.82 h
AUC (0-∞)/D [2]: 0.00809 kg·h/mL
Cmax/D [2]: 0.00175 kg/mL
T½elim [2]: 12.72 h
MAT (mean absorption time = SC MRT − IV MRT) (ZA 2 mg SC, 100 mL, 24000 Units rHuPH20, individual subjects): 0.47 h and 0.94 h and 1.39 h
MAT, Mean for the dose group [3]: 0.93 h
MAT, Median for the dose group [3]: 0.94 h
AUC (0-12h) [4]: 477.36 ng·h/mL and 575.89 ng·h/mL
AUC (0-∞) [4]: 729.31 ng·h/mL
AUC (0-∞)/D [4]: 0.00789 kg·h/mL and 0.00901 kg·h/mL and 0.01049 kg·h/mL
Cmax/D [4]: 0.00167 kg/mL and 0.00165 kg/mL and 0.00211 kg/mL
MRT [4]: 13.81 h
T½elim [4]: 23.36 h and 24.45 h and 26.05 h
AUC (0-∞)/D [5]: 0.00913 kg·h/mL
Cmax/D [5]: 0.00181 kg/mL
T½elim [5]: 24.62 h
AUC (0-∞)/D [6]: 0.00901 kg·h/mL
Cmax/D [6]: 0.00167 kg/mL
T½elim [6]: 24.45 h
MAT (mean absorption time = SC MRT − IV MRT) (ZA 5 mg SC, 100 mL, 24000 Units rHuPH20, individual subjects): 1.74 h and 4.61 h and 3.46 h
MAT, Mean for the dose group [7]: 3.27 h
MAT, Median for the dose group [7]: 3.46 h
MAT, Mean for all dose groups [8]: 1.64 h
MAT, Median for all dose groups [8]: 1.39 h
half-life (0.082 mg/kg, Subj 63, ZA 0.0820 mg/kg SC, inf 0.250 hr, PH20 6000 U): 20.5 h
AUC(0-t) (sc, 0.0196 mg/kg, AUC (0-12 h), Subj 27, ZA 0.0196 mg/kg SC, inf […], PH20 23976 U): 104 ng·h/mL
AUC(0-t) (sc, 0.0196 mg/kg, AUC (0-24 h), Subj 27, ZA 0.0196 mg/kg SC, inf […], PH20 23976 U): 116 ng·h/mL
AUC(0-t) (sc, 0.0196 mg/kg, AUC (0-48 h), Subj 27, ZA 0.0196 mg/kg SC, inf […], PH20 23976 U): 119 ng·h/mL
Cmax [9]: 25 ng/mL
AUC(0-inf) [9]: 120 ng·h/mL
Tmax [9]: 0.72 h
half-life (sc, 0.0196 mg/kg): 6.53 h
AUC(0-t) (sc, 0.0339 mg/kg, AUC (0-12 h), Subj 29, ZA 0.0339 mg/kg SC, inf 0.556 hr, PH20 24000 U): 217 ng·h/mL
AUC(0-t) (sc, 0.0339 mg/kg, AUC (0-24 h), Subj 29, ZA 0.0339 mg/kg SC, inf 0.556 hr, PH20 24000 U): 231 ng·h/mL
AUC(0-t) (sc, 0.0339 mg/kg, AUC (0-48 h), Subj 29, ZA 0.0339 mg/kg SC, inf 0.556 hr, PH20 24000 U): 236 ng·h/mL
Cmax [10]: 62.8 ng/mL
AUC(0-inf) [10]: 241 ng·h/mL
Tmax [10]: 1.29 h
AUC(0-t) (sc, 0.0608 mg/kg, AUC (0-12 h), Subj 68, ZA 0.0608 mg/kg SC, inf […], PH20 2880 U): 456 ng·h/mL
AUC(0-t) (sc, 0.0608 mg/kg, AUC (0-24 h), Subj 68, ZA 0.0608 mg/kg SC, inf […], PH20 2880 U): 503 ng·h/mL
AUC(0-t) (sc, 0.0608 mg/kg, AUC (0-48 h), Subj 68, ZA 0.0608 mg/kg SC, inf […], PH20 2880 U): 557 ng·h/mL
Cmax [11]: 144 ng/mL
AUC(0-inf) [11]: 630 ng·h/mL
Tmax [11]: 1 h
half-life (sc, 0.0608 mg/kg): 27.9 h
AUC(0-t) (sc, 0.0653 mg/kg, AUC (0-12 h), Subj 41, ZA 0.0653 mg/kg SC, inf […], PH20 12216 U): 487 ng·h/mL
AUC(0-t) (sc, 0.0653 mg/kg, AUC (0-24 h), Subj 41, ZA 0.0653 mg/kg SC, inf […], PH20 12216 U): 531 ng·h/mL
AUC(0-t) (sc, 0.0653 mg/kg, AUC (0-48 h), Subj 41, ZA 0.0653 mg/kg SC, inf […], PH20 12216 U): 597 ng·h/mL
Cmax [12]: 141 ng/mL
AUC(0-inf) [12]: 736 ng·h/mL
Tmax [12]: 1.01 h
half-life (sc, 0.0653 mg/kg): 42.8 h
AUC(0-t) (sc, 0.0691 mg/kg, AUC (0-12 h), Subj 39, ZA 0.0691 mg/kg SC, inf 0.552 hr, PH20 23856 U): 574 ng·h/mL
AUC(0-t) (sc, 0.0691 mg/kg, AUC (0-24 h), Subj 39, ZA 0.0691 mg/kg SC, inf 0.552 hr, PH20 23856 U): 619 ng·h/mL
AUC(0-t) (sc, 0.0691 mg/kg, AUC (0-48 h), Subj 39, ZA 0.0691 mg/kg SC, inf 0.552 hr, PH20 23856 U): 667 ng·h/mL
Cmax [13]: 147 ng/mL
AUC(0-inf) [13]: 727 ng·h/mL
Tmax [13]: 0.79 h
half-life (sc, 0.0691 mg/kg): 26.1 h
AUC(0-t) (sc, 0.0706 mg/kg, AUC (0-12 h), Subj 38, ZA 0.0706 mg/kg SC, inf 0.554 hr, PH20 23952 U): 477 ng·h/mL
AUC(0-t) (sc, 0.0706 mg/kg, AUC (0-24 h), Subj 38, ZA 0.0706 mg/kg SC, inf 0.554 hr, PH20 23952 U): 524 ng·h/mL
AUC(0-t) (sc, 0.0706 mg/kg, AUC (0-48 h), Subj 38, ZA 0.0706 mg/kg SC, inf 0.554 hr, PH20 23952 U): 580 ng·h/mL
Cmax [14]: 117 ng/mL
AUC(0-inf) [14]: 637 ng·h/mL
Tmax [14]: 1.3 h
AUC(0-t) (sc, 0.0717 mg/kg, AUC (0-12 h), Subj 67, ZA 0.0717 mg/kg SC, inf […], PH20 2880 U): 565 ng·h/mL
AUC(0-t) (sc, 0.0717 mg/kg, AUC (0-24 h), Subj 67, ZA 0.0717 mg/kg SC, inf […], PH20 2880 U): 630 ng·h/mL
AUC(0-t) (sc, 0.0717 mg/kg, AUC (0-48 h), Subj 67, ZA 0.0717 mg/kg SC, inf […], PH20 2880 U): 683 ng·h/mL
Cmax [15]: 156 ng/mL
AUC(0-inf) [15]: 725 ng·h/mL
Tmax [15]: 0.74 h
half-life (sc, 0.0717 mg/kg): 18.3 h
AUC(0-t) (sc, 0.0776 mg/kg, AUC (0-12 h), Subj 70, ZA 0.0776 mg/kg SC, inf […], PH20 2928 U): 573 ng·h/mL
AUC(0-t) (sc, 0.0776 mg/kg, AUC (0-24 h), Subj 70, ZA 0.0776 mg/kg SC, inf […], PH20 2928 U): 616 ng·h/mL
AUC(0-t) (sc, 0.0776 mg/kg, AUC (0-48 h), Subj 70, ZA 0.0776 mg/kg SC, inf […], PH20 2928 U): 658 ng·h/mL
Cmax [16]: 215 ng/mL
AUC(0-inf) [16]: 690 ng·h/mL
Tmax [16]: 0.68 h
half-life (sc, 0.0776 mg/kg): 19.4 h
AUC(0-t) (sc, 0.0781 mg/kg, AUC (0-12 h), Subj 71, ZA 0.0781 mg/kg SC, inf […], PH20 6000 U): 592 ng·h/mL
AUC(0-t) (sc, 0.0781 mg/kg, AUC (0-24 h), Subj 71, ZA 0.0781 mg/kg SC, inf […], PH20 6000 U): 629 ng·h/mL
AUC(0-t) (sc, 0.0781 mg/kg, AUC (0-48 h), Subj 71, ZA 0.0781 mg/kg SC, inf […], PH20 6000 U): 665 ng·h/mL
Cmax [17]: 198 ng/mL
AUC(0-inf) [17]: 693 ng·h/mL
Tmax [17]: 0.88 h
